Laboratory results taken from ChEMBL document CHEMBL1201862, “PubChem BioAssay data set” (2004).
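The compound was tested at five concentrations on cells cultured in 96-well plates, with a 48-hour exposure period. Abbreviation: GI50, concentration required for 50% inhibition of growth.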 Active and inactive are the calls of the source. Rule as the data show it: active = GI50 up to about 1.1 µM and inactive = higher.

Legend:
Assay in all cases: NCI tumour cell line growth inhibition, 48 h
786-0 = system: 786-0
COLO 205 = system: COLO 205
DU-145 = system: DU-145
HCC 2998 = system: HCC 2998
HOP-62 = system: HOP-62
HOP-92 = system: HOP-92
MDA-N = system: MDA-N
MOLT-4 = system: MOLT-4
NCI-H226 = system: NCI-H226
NCI-H23 = system: NCI-H23
NCI-H460 = system: NCI-H460
NCI-H522 = system: NCI-H522
OVCAR-4 = system: OVCAR-4
RPMI-8226 = system: RPMI-8226
SF-295 = system: SF-295
SK-MEL-5 = system: SK-MEL-5
SK-OV-3 = system: SK-OV-3
SNB-75 = system: SNB-75
SW-620 = system: SW-620
UACC-62 = system: UACC-62

With `CCCC1NC(C#N)(C#N)C(CCC)NC1(C#N)C#N` (stereo not given) as the compound, how does the GI50 (786-0) read?
Its GI50 is 0.0326 µM (active).

What about the GI50 (COLO 205) of the same compound?
Its GI50 is < 0.01 µM (active).

What about the GI50 (DU-145) of the same compound?
Its GI50 is 3.78 µM (inactive).

What about the GI50 (HCC 2998) of the same compound?
The GI50 was 7.96 µM (inactive).

And the GI50 (HOP-62)?
Its GI50 is 35.8 µM (inactive).

And the GI50 (HOP-92)?
Its GI50 is 0.488 µM (active).

And the GI50 (MDA-N)?
The GI50 was 0.285 µM (active).

What about the GI50 (MOLT-4) of the same compound?
Its GI50 is < 0.0214 µM (active).

What about the GI50 (NCI-H226) of the same compound?
Its GI50 is 22.1 µM (inactive).

What about the GI50 (NCI-H23) of the same compound?
The GI50 was 2.49 µM (inactive).

What about the GI50 (NCI-H460) of the same compound?
The GI50 was 14 µM (inactive).

And the GI50 (NCI-H522)?
The GI50 was < 0.0105 µM (active).

And the GI50 (OVCAR-4)?
Its GI50 is 1.18 µM (inactive).

What about the GI50 (RPMI-8226) of the same compound?
The GI50 was < 0.01 µM (active).

What about the GI50 (SF-295) of the same compound?
Its GI50 is 22.7 µM (inactive).

And the GI50 (SK-MEL-5)?
Its GI50 is 1.44 µM (inactive).

And the GI50 (SK-OV-3)?
Its GI50 is 35.9 µM (inactive).

And the GI50 (SNB-75)?
Its GI50 is 2.17 µM (inactive).

And the GI50 (SW-620)?
Its GI50 is < 0.012 µM (active).

And the GI50 (UACC-62)?
Its GI50 is 17.4 µM (inactive).

`CSc1ccc(NC(=S)NN(C)C)cc1` was tested. Which GI50 (786-0) did it give?
The GI50 was > 10 µM (inactive).

And the GI50 (COLO 205)?
The GI50 was > 10 µM (inactive).

What about the GI50 (DU-145) of the same compound?
Its GI50 is > 10 µM (inactive).

What about the GI50 (HCC 2998) of the same compound?
The GI50 was > 10 µM (inactive).

And the GI50 (HOP-62)?
The GI50 was > 10 µM (inactive).

And the GI50 (HOP-92)?
Its GI50 is > 10 µM (inactive).

And the GI50 (MDA-N)?
Its GI50 is > 10 µM (inactive).

What about the GI50 (MOLT-4) of the same compound?
The GI50 was > 10 µM (inactive).

What about the GI50 (NCI-H226) of the same compound?
The GI50 was > 10 µM (inactive).

What about the GI50 (NCI-H23) of the same compound?
The GI50 was > 10 µM (inactive).

And the GI50 (NCI-H460)?
The GI50 was > 10 µM (inactive).

What about the GI50 (NCI-H522) of the same compound?
The GI50 was > 10 µM (inactive).

And the GI50 (OVCAR-4)?
The GI50 was > 10 µM (inactive).

What about the GI50 (RPMI-8226) of the same compound?
The GI50 was > 10 µM (inactive).

What about the GI50 (SF-295) of the same compound?
Its GI50 is > 10 µM (inactive).

What about the GI50 (SK-MEL-5) of the same compound?
The GI50 was > 10 µM (inactive).

And the GI50 (SK-OV-3)?
The GI50 was > 10 µM (inactive).

What about the GI50 (SNB-75) of the same compound?
Its GI50 is > 10 µM (inactive).

What about the GI50 (SW-620) of the same compound?
Its GI50 is > 10 µM (inactive).

And the GI50 (UACC-62)?
The GI50 was > 10 µM (inactive).
